Here are results for one molecule from US20070202090A1, “Water Soluble Form Of Coenzyme Q10 In The Form Of An Inclusion Complex With Beta-Cyclodextrin, Process Of Preparing, And Use Thereof” (priority 2004, published 2007).

A short description of data set [1]: Comparison of milk-solubility of CoQ10 and CDQ10 (saturation, HPLC). As to conditions: fresh milk 3.5% milk fat, room temperature, addition till saturation, filtrate. The data set is classed as physicochemical. The protocol:
β-Cyclodextrin (1.575 g, 1.39 mmole) was dissolved in 13 mL of distilled water at 60-70° C. Then 1.00 g (1.16 mmole) of CoQ10 were added to the dissolved β-cyclodextrin, and the mixture was stirred for 20 minutes at 60-70° C. After stirring for some minutes the CDQ10 complex started to precipitate. The reaction mixture was kept stirring for about 8 hours at 60-70° C., and about 2 hours at room temperature, till the formation of a homogenous paste. Then the obtained mixture was under stirring at room temperature added to fresh milk containing 3.5% of milk fat (Ljubljanske mlekarne) till saturation. Into another milk aliquot was added under identical conditions CoQ10 till saturation. […]

A short description of data set [2]: Dissolution of CoQ10 in dairy products and orange juice. The note with it: about 35-37 mg CoQ10 in about 200 g product. The data set is classed as physicochemical. The protocol:
β-Cyclodextrin (7.90 g, 6.95 mmole) was dissolved in distilled water (68 mL) at 65-70° C., and under stirring was added CoQ10 (5.00 g, 5.79 mmole). After about 30 minutes the CDQ10 complex precipitated. The reaction mixture was kept stirring for about 10 hours at 70° C., and 10 hours at room temperature, till the formation of an intensive yellow coloured paste. Then equal aliquots (each 500 μL containing about 37 mg of CoQ10 in the form of CDQ10) of the obtained mixture were admixed to about 200 g each: milk (3.5% of milk fat, Ljubljanske miekarne), liquid yoghurt (1.3% of milk fat, Ljubljanske miekarne), fruit yoghurt (peach, Ljubljanske miekarne) and orange juice (100%, Rauch). The obtained preparations were organoleptically compared with non-lemented supplemented milk, liquid yoghurt, fruit yoghurt and orange juice, as well as with those supplemented each with about 35-37 mg CoQ10. As CoQ10 was not dissolved in said products, they were not included in the tests. The tests were performed by 10-21 randomly chosen consumers.

Regarding `COC1=C(OC)C(=O)C(C/C=C(\C)CC/C=C(\C)CC/C=C(\C)CC/C=C(\C)CC/C=C(\C)CC/C=C(\C)CC/C=C(\C)CC/C=C(\C)CC/C=C(\C)CCC=C(C)C)=C(C)C1=O` [CoQ10, coenzyme Q10], the “Concentration of CoQ10 in milk” value in data set [1] was 3.2 µg/g. For the same molecule, in data set [2], the “dissolution in milk, liquid yoghurt, fruit yoghurt and orange juice” value is given as “not dissolved”.
